Where two headings read alike, the source gives them in different places.
How the values were obtained:
HDAC2 [1] = target: T1, HDAC2 (Homo sapiens, UniProt Q92769); test: HDAC biochemical assay of O10-O12 (Table O1); design: The recombinant, full-length HDAC protein (BPS Biosciences) was incubated; purchased BPS Biosciences
HDAC6 [2] = target: T2, HDAC6 (Homo sapiens, UniProt Q9UBN7); conditions: read-out: HDAC6 IC50; Table O1; 200 μM TCEP
T2 sequence (Q9UBN7 1-1215): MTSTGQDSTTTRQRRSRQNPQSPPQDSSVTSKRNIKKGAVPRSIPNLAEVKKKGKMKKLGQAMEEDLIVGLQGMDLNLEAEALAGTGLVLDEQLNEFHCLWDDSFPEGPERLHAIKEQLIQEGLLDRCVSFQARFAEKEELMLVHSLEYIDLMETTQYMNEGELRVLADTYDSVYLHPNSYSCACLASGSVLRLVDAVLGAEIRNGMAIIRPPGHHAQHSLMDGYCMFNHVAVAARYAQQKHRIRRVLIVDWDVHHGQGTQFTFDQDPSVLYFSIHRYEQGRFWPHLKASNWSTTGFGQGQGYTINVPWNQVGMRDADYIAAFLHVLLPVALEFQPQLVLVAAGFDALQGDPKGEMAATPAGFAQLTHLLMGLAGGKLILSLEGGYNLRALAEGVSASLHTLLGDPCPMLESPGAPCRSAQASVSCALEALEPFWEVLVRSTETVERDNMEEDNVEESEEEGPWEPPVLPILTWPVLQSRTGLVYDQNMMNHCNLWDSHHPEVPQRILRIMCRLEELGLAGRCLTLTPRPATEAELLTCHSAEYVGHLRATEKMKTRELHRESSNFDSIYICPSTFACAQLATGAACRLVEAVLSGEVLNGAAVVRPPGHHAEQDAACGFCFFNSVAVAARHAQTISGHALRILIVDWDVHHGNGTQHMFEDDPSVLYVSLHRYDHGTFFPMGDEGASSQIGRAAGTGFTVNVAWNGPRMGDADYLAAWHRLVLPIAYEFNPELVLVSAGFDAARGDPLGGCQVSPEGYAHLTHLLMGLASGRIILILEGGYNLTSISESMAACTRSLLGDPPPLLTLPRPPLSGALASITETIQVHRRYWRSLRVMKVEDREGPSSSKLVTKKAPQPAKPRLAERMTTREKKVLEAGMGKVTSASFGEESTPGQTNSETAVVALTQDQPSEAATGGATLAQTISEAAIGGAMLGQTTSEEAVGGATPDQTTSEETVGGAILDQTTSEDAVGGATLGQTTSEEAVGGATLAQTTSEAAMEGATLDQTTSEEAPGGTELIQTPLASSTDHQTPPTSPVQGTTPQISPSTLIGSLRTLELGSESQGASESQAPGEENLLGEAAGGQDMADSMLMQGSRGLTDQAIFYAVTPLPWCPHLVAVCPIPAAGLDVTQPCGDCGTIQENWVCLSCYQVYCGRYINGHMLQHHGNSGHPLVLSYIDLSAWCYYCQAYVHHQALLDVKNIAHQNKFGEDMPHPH

HDAC1 [3] = target: T3, HDAC1 (Homo sapiens, UniProt Q13547); conditions: read-out: HDAC1 IC50; Table O1
HDAC3 = target: T4, HDAC3 (Homo sapiens, UniProt O15379); test: HDAC biochemical assay of O10-O12 (Table O1)
T4 construct: The recombinant, full-length HDAC protein (BPS Biosciences) was incubated; purchased BPS Biosciences

HDAC8 [4] = target: T5, HDAC8 (Homo sapiens, UniProt Q9BY41); conditions: read-out: HDAC8 IC50; Table O1
T5 sequence (Q9BY41 1-377): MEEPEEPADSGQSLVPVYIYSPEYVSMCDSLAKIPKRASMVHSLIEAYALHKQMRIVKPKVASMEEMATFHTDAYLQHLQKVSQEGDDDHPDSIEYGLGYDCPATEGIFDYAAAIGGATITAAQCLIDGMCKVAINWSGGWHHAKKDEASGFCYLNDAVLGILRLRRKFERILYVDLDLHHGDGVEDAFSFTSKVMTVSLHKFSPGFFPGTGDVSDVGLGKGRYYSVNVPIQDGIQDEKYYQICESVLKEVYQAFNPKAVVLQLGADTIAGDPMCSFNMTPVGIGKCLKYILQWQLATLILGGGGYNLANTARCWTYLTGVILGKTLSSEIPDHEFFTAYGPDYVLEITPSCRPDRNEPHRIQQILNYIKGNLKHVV

HDAC7 = HDAC7 (Homo sapiens, UniProt Q8WUI4); conditions: read-out: HDAC7 IC50; Table O1
HDAC2 [5] = target: T1, HDAC2; test: HDAC biochemical assay of P5-P12 (Table P1); design: The recombinant, full-length HDAC protein (BPS Biosciences) was incubated; purchased BPS Biosciences
melanoma cell lines [6] = test: cells; conditions: read-out: Average Concentration (M), LC50, Melanoma
Description: (§1) All compounds submitted for screening were initially tested at a single high dose (10^-5 M) against the fill NCI 60 cell panel. Only compounds which satisfied pre-determined threshold inhibition criteria in a minimum number of cell lines progressed to a second round of testing utilizing a more comprehensive 5-dose inhibition assay. The threshold inhibition criteria for progression to the 5-dose assays were selected to efficiently capture compounds with anti-proliferative activity based on historical DTP screening data.
(§2) Concentrations for G150, IC50, TGI, and LC50 were calculated for all cell lines tested, and heat plots were prepared.

[7] = system: human malignant melanoma cell lines; test: melanoma cell viability, ATP content (Cell TiterGlo); assay type: cell-based; conditions: range over panel of melanoma cell lines, FIG. 4, read-out: IC50 melanoma cell proliferation
renal cancer cell lines = conditions: five-dose
Description: as §1, §2

HDACs 1-3 = test: HDAC biochemical assay of P5-P12, summary statements
HDAC1 [8] = target: T3, HDAC1; conditions: read-out: HDAC inhibitory activity (Ki) HDAC1; Table 2
Description: (§3) To measure the inhibitory effect on deacetylase function in vitro, a continuous kinetic biochemical assay miniaturized to 384-well plate format was optimized.
(§4) Fluorescence measurements were obtained in real-time on a Varioskan microtiter plate reader (Thermo).

melanoma cell lines [9] = conditions: five-dose
Description: as §1, §2

HDAC1 [10] = target: T3, HDAC1; test: HDAC biochemical assay of P5-P12 (Table P1); design: The recombinant, full-length HDAC protein (BPS Biosciences) was incubated; purchased BPS Biosciences
HDAC2 [11] = target: T1, HDAC2; assay type: biochemical; design: The recombinant, full-length HDAC protein (BPS Biosciences) was incubated; purchased BPS Biosciences; conditions: read-out: HDAC inhibitory activity (Ki) HDAC2
Description: as §3, §4

NCI-60 cancer cell lines [12] = conditions: five-dose
Description: as §1, §2

HDAC8 [13] = target: T5, HDAC8; test: HDAC biochemical assay of P5-P12 (Table P1); design: The recombinant, full-length HDAC protein (BPS Biosciences) was incubated; purchased BPS Biosciences
NCI-60 cancer cell lines [14] = test: cells
Description: as §1, §2

HDAC2 [15] = target: T1, HDAC2; test: HDAC biochemical assay (Example 16); design: recombinant, full-length HDAC protein; purchased BPS Biosciences; conditions: Table 4; reducing conditions (TCEP 200 μM)
Procedure: (§5) Thus, small-molecule inhibitors were arrayed at twelve-point dose-response (3-fold increments) in 384-well library plates and transferred by robotic pin device to replicate assay plates containing assay buffer under reducing conditions (TCEP 200 μM). A liquid handling device then transferred a tripeptide substrate terminating in acetyl-lysine and amide conjugated to 4-methyl-7-aminocoumarin (AMC), recombinant human histone deacetylase (BPS Bioscience, San Diego, Calif.), and recombinant human trypsin (Sigma-Aldrich, St. Louis, Mo.). Following deacetylase hydrolysis of acetyl-lysine, trypsin cleavage liberated the AMC fluorophore. Kinetic (fluorescence per unit time) and end-point (total fluorescence) data were captured by a multilabel plate reader. Replicate data were analyzed by curve-fit using logistic regression (Spotfire Decision-Site).

HDAC1 [16] = target: T3, HDAC1; test: HDAC biochemical assay (Example 16); design: recombinant, full-length HDAC protein; purchased BPS Biosciences; conditions: Table 4; reducing conditions (TCEP 200 μM)
Procedure: as §5

HDAC3/NCor2 = target: T6, HDAC3/NCor2 (Homo sapiens, UniProt O15379); test: HDAC biochemical assay (Example 16)
T6 construct: recombinant, full-length HDAC protein; purchased BPS Biosciences
Procedure: as §5

HDAC2 [17] = target: T1, HDAC2; test: HDAC2 inhibition, trypsin-coupled kinetic fluorescence homogeneous assay (Example 10); assay type: biochemical; design: The recombinant, full-length HDAC protein (BPS Biosciences) was incubated; purchased BPS Biosciences; conditions: Conc (uM); logistic curve fit of activity versus concentration; some fits reached max iterations; read-out: X50
Procedure: as §3, §4
A biochemical study of HDAC2 inhibition was carried out using the trypsin-coupled, kinetic fluorescence homogeneous assay described above.

HDAC6 [18] = target: T2, HDAC6; test: HDAC biochemical assay (Example 16); design: recombinant, full-length HDAC protein; purchased BPS Biosciences; conditions: Table 4; reducing conditions (TCEP 200 μM)
Procedure: as §5

human HDACs = test: HDAC biochemical assay (Example 16), summary statements over isoforms
Procedure: The inhibitory effect of compounds on deacetylase isoenzyme function was determined in vitro using an optimized homogenous assay performed in 384-well plate format. […] Data are analyzed on a plate-by-plate basis for the linear range of fluorescence over time. Data from the plate capture corresponding to the mid-linear range is imported into analytical software and annotated with well identity and compound concentration (Spotfire DecisionSite). Replicate experimental data from incubations with inhibitor are normalized to control, solvent-only wells and IC-50 is determined by logistic regression.
Thus, small-molecule inhibitors were arrayed at twelve-point dose-response (3-fold increments) in 384-well library plates and transferred by robotic pin device to replicate assay plates containing assay buffer under reducing conditions (TCEP 200 μM). A liquid handling device then transferred a tripeptide substrate terminating in acetyl-lysine and amide conjugated to 4-methyl-7-aminocoumarin (AMC), recombinant human histone deacetylase (BPS Bioscience, San Diego, Calif.), and recombinant human trypsin (Sigma-Aldrich, St. Louis, Mo.). […] Kinetic (fluorescence per unit time) and end-point (total fluorescence) data were captured by a multilabel plate reader. Replicate data were analyzed by curve-fit using logistic regression (Spotfire Decision-Site). […]

T6 sequence (O15379 whole entry): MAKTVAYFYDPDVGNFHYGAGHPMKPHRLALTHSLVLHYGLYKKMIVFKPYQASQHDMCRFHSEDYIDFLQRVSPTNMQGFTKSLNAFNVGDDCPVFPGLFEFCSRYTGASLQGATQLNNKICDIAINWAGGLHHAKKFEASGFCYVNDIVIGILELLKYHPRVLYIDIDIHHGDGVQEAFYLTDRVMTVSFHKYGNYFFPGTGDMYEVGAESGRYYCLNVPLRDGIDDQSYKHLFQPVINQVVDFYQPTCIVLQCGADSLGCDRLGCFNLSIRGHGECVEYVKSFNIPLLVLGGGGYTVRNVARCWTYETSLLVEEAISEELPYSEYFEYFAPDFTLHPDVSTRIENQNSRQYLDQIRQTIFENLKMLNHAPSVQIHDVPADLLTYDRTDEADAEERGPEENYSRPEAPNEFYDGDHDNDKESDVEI
T6 sequence (Q9Y618 395-489 partner limits assumed): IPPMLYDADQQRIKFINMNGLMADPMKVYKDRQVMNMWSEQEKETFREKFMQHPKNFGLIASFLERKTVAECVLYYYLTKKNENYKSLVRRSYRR
T3 sequence (Q13547 whole entry): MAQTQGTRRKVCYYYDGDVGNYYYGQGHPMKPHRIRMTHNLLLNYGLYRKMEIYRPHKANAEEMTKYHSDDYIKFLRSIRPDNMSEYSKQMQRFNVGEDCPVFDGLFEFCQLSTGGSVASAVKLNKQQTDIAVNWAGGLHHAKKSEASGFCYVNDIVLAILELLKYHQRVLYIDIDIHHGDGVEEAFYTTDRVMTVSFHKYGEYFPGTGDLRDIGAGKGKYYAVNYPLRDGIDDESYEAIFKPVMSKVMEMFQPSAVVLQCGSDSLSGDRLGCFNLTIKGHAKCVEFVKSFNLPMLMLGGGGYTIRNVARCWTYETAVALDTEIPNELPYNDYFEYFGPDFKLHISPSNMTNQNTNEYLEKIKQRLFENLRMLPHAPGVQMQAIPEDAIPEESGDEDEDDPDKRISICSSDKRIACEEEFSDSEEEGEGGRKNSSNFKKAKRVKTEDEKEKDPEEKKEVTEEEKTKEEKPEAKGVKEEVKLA
T1 sequence (Q92769 whole entry): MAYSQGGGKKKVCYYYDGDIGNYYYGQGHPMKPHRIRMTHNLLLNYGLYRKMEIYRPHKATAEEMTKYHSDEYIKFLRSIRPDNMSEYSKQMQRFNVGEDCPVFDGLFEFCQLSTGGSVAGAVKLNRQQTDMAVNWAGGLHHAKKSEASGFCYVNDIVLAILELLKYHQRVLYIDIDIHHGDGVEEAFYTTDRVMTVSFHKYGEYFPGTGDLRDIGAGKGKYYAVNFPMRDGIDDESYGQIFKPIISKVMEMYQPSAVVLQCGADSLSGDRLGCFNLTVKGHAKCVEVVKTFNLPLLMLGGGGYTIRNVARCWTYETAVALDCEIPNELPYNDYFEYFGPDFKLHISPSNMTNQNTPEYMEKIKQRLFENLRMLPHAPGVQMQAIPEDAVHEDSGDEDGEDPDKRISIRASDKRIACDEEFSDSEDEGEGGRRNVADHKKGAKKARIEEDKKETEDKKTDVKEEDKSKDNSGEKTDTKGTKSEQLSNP
T4 sequence (O15379 whole entry): as the sequence (O15379 whole entry) above
T4 sequence (Q9Y618 395-489 partner limits assumed): as the sequence (Q9Y618 395-489 partner limits assumed) above
Chain of HDAC7 (Q8WUI4 518-952 limits assumed): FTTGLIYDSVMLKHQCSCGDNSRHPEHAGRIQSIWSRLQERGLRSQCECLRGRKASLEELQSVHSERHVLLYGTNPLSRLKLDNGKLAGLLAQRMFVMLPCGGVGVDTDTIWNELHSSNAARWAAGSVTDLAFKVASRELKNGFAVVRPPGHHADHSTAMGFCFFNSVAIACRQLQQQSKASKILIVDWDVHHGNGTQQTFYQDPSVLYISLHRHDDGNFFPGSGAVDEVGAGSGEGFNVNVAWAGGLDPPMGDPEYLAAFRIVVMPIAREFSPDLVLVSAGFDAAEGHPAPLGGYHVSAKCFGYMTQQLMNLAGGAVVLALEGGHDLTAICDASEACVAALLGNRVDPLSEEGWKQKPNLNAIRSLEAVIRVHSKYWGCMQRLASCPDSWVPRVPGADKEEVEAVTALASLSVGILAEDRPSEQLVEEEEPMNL

## CCCCCCCC(=O)SCCC=CC1CC(=O)NCc2nc(co2)C2=NC(C)(CS2)C(=O)NC(C(C)C)C(=O)O1 (stereo not drawn) [Compound O12, Thiazoline-Oxazole Thioester Analog]
HDAC2 [1]
  IC50: 2100 nM
HDAC6 [2]
  IC50: 1100 nM
HDAC1 [3]
  IC50: 950 nM
HDAC3
  IC50: 1900 nM

## CC(C)[C@@H]1NC(=O)[C@]2(C)CSC(=N2)c2coc(n2)CNC(=O)C[C@@H](/C=C/CCS)OC1=O [Compound O11, Thiazoline-Oxazole Thiol Analog]
HDAC2 [1]
  IC50: 20 nM
HDAC6 [2]
  IC50: 98 nM
HDAC8 [4]
  IC50: 1200 nM
HDAC1 [3]
  IC50: 4.4 nM
HDAC7
  IC50: 960 nM
HDAC3
  IC50: 7.2 nM

## CCCCCCCC(=O)SCC/C=C/[C@@H]1CC(=O)NCc2nc(cs2)C2=N[C@@](C)(CS2)C(=O)N[C@@H](C(C)C)C(=O)O1 [Largazole, largazole, reference compound]
HDAC2 [5]
  IC50: 18.6 nM
HDAC2 [1]
  IC50: 900 nM
Melanoma cell lines [6]
  CC50: 3.55e-06 M
[7]
  IC50: 45 to 315 nM
Renal cancer cell lines
  Percent of Cell Lines Impacted (%), LC50, Renal: 14%
HDACs 1-3
  IC50 range in words for HDACs 1-3: high nM-μM range
HDAC1 [8]
  Ki: 20 nM
Melanoma cell lines [9]
  Percent of Cell Lines Impacted (%), LC50, Melanoma: 33%
HDAC1 [3]
  IC50: 230 nM
HDAC1 [10]
  IC50: 10.1 nM
HDAC2 [11]
  Ki: 21 nM
NCI-60 cancer cell lines [12]; 50% Growth Inhibition
  Percent of Cell Lines Impacted (%), GI50: 100%
NCI-60 cancer cell lines [12]; 50% Lethal Concentration reached
  Percent of Cell Lines Impacted (%), LC50: 7%
NCI-60 cancer cell lines [12]; Total Growth Inhibition
  Percent of Cell Lines Impacted (%), TGI: 58%
  Total Impacted Cell Lines (n), TGI: 34
HDAC8 [13]
  IC50: 1070 nM
NCI-60 cancer cell lines [14]; read-out: Average Concentration (M), GI50
  GI50: 2.1e-06 M
NCI-60 cancer cell lines [14]; read-out: GI50 concentrations (M), order of magnitude
  GI50: 1e-06 M

## C[C@@]12CSC(=N1)c1csc(n1)CNC(=O)C[C@@H](/C=C/CCS)OC(=O)[C@@H]1CCCN1C2=O [Proline substitution (4)]
HDAC2 [15]
  IC50: 800 nM
HDAC1 [16]
  IC50: 110 nM
HDAC3/NCor2; Table 4, reducing conditions (TCEP 200 μM)
  IC50: 580 nM
HDAC2 [17]
  IC50: 0.773 µM
HDAC6 [18]
  IC50: 13000 nM

## CC(C)C1NC(=O)C2(C)COC(=N2)c2coc(n2)CNC(=O)CC(C=CCCSSCCC=CC2CC(=O)NCc3nc(co3)C3=NC(C)(CO3)C(=O)NC(C(C)C)C(=O)O2)OC1=O (stereo not drawn) [Oxazoline-oxazole (39b), Disulfide Dimer 39b]
HDAC2 [15]
  IC50: 1.7 nM
HDAC1 [16]
  IC50: 0.69 nM
HDAC3/NCor2
  IC50: 1.5 nM

## CC(C)[C@@H]1NC(=O)[C@]2(C)CSC(=N2)c2cccc(n2)CNC(=O)C[C@@H](/C=C/CCS)OC1=O [Thiazole-pyridine substitution (29b)]
Human HDACs
  activity against Class I HDACs: sub-nanomolar
HDAC3/NCor2
  IC50: 1.1 nM
HDAC6 [18]
  IC50: 29 nM

Source: patent US10676504B2 (Colorado State University Research Foundation, priority 2015, dated 2020)
